Source: patent US12492188B2, “1H-benzo[D]imidazole derivatives as TLR9 inhibitors for the treatment of fibrosis” (BRISTOL-MYERS SQUIBB COMPANY, priority 2020, dated 2025)
Where two headings read alike, the source gives them in different places.

Legend:
Format in all cases: cell-based
human TLR7 = target: T1, human TLR7 (Homo sapiens, UniProt Q9NYK1); test: TLR7 inhibition reporter assay (HEK-Blue cells, secreted embryonic alkaline phosphatase reporter); settings: HEK-Blue cells overexpressing human TLR7, stimulated with gardiquimod 7.5 μM; read-out: TLR 7 IC50
T1 construct: host or cells: HEK-Blue cells (HEK293-derived reporter line)
T1 sequence (Q9NYK1 27-1049): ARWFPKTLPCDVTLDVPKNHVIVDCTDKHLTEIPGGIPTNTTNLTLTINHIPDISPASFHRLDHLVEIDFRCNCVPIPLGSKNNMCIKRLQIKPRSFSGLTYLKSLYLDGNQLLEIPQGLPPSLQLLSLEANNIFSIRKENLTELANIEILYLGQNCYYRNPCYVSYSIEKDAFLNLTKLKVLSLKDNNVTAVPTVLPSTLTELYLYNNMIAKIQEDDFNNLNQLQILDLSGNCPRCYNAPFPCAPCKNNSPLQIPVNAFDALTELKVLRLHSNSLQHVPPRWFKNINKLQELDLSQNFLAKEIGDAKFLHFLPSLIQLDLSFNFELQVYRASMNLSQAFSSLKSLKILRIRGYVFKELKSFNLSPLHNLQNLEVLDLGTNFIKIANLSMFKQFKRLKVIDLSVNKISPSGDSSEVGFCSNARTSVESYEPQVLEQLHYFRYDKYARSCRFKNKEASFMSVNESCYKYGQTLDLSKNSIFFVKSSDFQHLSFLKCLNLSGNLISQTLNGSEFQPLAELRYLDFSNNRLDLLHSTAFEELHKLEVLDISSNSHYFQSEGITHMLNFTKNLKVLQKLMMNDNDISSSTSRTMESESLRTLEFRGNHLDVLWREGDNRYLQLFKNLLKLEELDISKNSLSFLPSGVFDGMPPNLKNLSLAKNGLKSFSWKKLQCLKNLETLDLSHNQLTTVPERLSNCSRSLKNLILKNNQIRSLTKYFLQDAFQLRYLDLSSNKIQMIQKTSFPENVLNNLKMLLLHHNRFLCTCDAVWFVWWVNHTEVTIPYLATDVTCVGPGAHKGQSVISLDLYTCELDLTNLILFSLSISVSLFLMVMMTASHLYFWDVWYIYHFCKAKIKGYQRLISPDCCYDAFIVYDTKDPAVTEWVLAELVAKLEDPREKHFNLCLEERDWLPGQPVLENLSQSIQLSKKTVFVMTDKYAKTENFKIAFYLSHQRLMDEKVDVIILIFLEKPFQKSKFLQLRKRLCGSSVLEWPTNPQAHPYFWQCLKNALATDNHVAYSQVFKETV
Procedure, shortened: (§1)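 HEK-Blue cells overexpressing the respective receptor, with an NF-κB/AP-1-driven SEAP reporter, were pre-treated with compound (0.05 nM–50 μM) for 30 min at room temperature. Stimulation used gardiquimod 7.5 μM (TLR7), R848 15.9 μM (TLR8) or ODN2006 5 nM (TLR9); SEAP was read after 22 h at 37 °C as percent inhibition.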

human TLR8 = target: T2, human TLR8 (Homo sapiens, UniProt Q9NR97); test: TLR8 inhibition reporter assay (HEK-Blue cells, secreted embryonic alkaline phosphatase reporter); settings: HEK-Blue cells overexpressing human TLR8, stimulated with R848 15.9 μM; read-out: TLR 8 IC50
T2 construct: host or cells: HEK-Blue cells (HEK293-derived reporter line)
T2 sequence (Q9NR97 27-1041): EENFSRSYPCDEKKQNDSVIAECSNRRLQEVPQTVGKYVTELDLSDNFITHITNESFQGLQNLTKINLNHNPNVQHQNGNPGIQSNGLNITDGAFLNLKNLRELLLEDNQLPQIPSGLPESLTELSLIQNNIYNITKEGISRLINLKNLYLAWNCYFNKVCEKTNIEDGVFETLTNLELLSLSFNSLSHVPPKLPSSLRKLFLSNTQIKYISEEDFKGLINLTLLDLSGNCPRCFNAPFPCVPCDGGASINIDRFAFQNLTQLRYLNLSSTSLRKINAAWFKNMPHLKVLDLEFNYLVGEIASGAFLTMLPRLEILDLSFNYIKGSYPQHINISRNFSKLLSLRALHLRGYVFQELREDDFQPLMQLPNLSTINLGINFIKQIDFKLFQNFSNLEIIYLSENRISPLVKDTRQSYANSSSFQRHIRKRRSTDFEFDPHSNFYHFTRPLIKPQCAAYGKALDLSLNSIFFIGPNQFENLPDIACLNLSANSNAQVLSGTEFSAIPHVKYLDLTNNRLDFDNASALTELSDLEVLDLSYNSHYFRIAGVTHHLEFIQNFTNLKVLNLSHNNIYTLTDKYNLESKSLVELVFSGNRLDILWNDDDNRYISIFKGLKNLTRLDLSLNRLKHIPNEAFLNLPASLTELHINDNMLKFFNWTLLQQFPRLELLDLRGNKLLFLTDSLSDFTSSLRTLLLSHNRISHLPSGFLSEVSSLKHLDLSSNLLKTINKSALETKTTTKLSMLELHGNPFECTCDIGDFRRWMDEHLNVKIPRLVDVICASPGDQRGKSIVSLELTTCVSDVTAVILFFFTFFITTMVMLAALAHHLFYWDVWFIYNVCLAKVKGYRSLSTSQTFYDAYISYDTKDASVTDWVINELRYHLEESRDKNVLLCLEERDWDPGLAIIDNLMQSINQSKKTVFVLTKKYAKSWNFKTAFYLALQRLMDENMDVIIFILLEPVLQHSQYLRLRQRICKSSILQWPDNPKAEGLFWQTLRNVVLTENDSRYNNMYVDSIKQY
Procedure, shortened: as §1

human TLR9 = target: T3, human TLR9 (Homo sapiens, UniProt Q9NR96); test: TLR9 inhibition reporter assay (HEK-Blue cells, secreted embryonic alkaline phosphatase reporter)
T3 construct: host or cells: HEK-Blue cells (HEK293-derived reporter line)
T3 sequence (Q9NR96 26-1032): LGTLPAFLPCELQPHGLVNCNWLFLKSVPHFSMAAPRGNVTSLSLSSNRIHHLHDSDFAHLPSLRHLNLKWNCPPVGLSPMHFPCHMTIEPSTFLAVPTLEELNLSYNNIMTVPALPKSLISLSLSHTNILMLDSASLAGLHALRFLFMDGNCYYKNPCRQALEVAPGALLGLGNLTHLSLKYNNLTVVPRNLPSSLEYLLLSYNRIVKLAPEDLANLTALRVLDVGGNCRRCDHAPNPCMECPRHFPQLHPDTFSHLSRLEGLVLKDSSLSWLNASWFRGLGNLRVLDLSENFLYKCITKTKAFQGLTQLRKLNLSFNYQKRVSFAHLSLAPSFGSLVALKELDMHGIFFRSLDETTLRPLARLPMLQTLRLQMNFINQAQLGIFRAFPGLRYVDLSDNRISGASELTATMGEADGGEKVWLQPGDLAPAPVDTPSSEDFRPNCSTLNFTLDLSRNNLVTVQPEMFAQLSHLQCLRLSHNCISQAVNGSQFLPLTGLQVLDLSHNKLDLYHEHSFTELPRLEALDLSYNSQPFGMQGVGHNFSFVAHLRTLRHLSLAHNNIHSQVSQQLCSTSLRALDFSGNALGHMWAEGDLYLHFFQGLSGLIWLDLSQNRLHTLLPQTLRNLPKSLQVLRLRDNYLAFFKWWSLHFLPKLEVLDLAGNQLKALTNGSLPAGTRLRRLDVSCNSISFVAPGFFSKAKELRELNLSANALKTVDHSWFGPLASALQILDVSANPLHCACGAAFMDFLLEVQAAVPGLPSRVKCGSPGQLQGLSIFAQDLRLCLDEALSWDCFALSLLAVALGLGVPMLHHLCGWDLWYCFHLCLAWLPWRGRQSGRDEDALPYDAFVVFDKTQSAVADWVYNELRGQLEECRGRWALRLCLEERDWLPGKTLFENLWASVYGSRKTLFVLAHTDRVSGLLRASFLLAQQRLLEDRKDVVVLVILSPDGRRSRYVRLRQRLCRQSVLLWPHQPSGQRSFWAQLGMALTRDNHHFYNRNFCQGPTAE
Procedure, shortened: as §1

[1] = HEK-Blue cells overexpressing human TLR9, stimulated with ODN2006 5 nM, 22 hour incubation, reporter readout
[2] = HEK-Blue cells overexpressing human TLR9, stimulated with ODN2006 5 nM, read-out: TLR 9 IC50
[3] = HEK-Blue human TLR9 reporter cells

IC50 (human TLR7) [nM]	IC50 (human TLR8) [nM]	IC50 (human TLR9; [1]) [nM]	IC50 (human TLR9; [2]) [nM]	IC50 (human TLR9; [3]) [nM]	IC50 (human TLR9) [nM]	SMILES
2200	2300	68	68			CN(C)C1CCN(Cc2ccc(-c3ccc4nc(-c5ccc(C#N)cc5)n(C)c4c3)cc2)CC1 [Example 383, 4-(6-(4-((4-(dimethylamino)piperidin-1-yl)methyl)phenyl)-1-methyl-1H-benzo[d]imidazol-2-yl)benzonitrile]
> 50000	> 50000		72	72		CC(C)CN1CCCC(N2CCC(c3ccc4nc(-c5ccc(S(C)(=O)=O)cc5)n(C)c4c3F)CC2)CC1 (centres unmarked) [Example 311, 7-fluoro-6-(1-(1-isobutylazepan-4-yl)piperidin-4-yl)-1-methyl-2-(4-(methylsulfonyl)phenyl)-1H-benzo[d]imidazole]
700	> 50000		24	24		CC(C)N1CCCC(N2CCC(c3cc(F)c4nc(-c5ccc(S(C)(=O)=O)cc5)n(C)c4c3)CC2)CC1 (single isomer, unassigned) [Example 295, 4-fluoro-6-(1-(1-isopropylazepan-4-yl)piperidin-4-yl)-1-methyl-2-(4-(methylsulfonyl)phenyl)-1H-benzo[d]imidazole]
45600	> 50000		631		630	Cn1c(-c2ccc(S(C)(=O)=O)cc2)nc2c(F)c(C3CCN(C4CC5CCC(C4)N5CC4COC4)CC3)ccc21 (single isomer, unassigned) [Example 194, 4-fluoro-1-methyl-2-(4-(methylsulfonyl)phenyl)-5-(1-(8-(oxetan-3-ylmethyl)-8-azabicyclo[3.2.1]octan-3-yl)piperidin-4-yl)-1H-benzo[d]imidazole]
> 25000	> 25000		109		110	COc1ccc(-c2nc3c(C)cc(C4CCN(C5CC6CCC(C5)N6C5COC5)CC4)cc3n2C)cc1OC (single isomer, unassigned) [Example 164, 2-(3,4-dimethoxyphenyl)-1,4-dimethyl-6-(1-(8-(oxetan-3-yl)-8-azabicyclo[3.2.1]octan-3-yl)piperidin-4-yl)-1H-benzo[d]imidazole]
4800	> 50000		248	250		CC(C)CN1C2CCC1CC(N1CCC(c3cc(F)c4nc(-c5ccc(S(C)(=O)=O)cc5)n(C)c4c3)CC1)C2 (centres unmarked) [Example 285, 4-fluoro-6-(1-(8-isobutyl-8-azabicyclo[3.2.1]octan-3-yl)piperidin-4-yl)-1-methyl-2-(4-(methylsulfonyl)phenyl)-1H-benzo[d]imidazole]
21500	> 50000		32		32	Cn1c(-c2ccc(S(C)(=O)=O)cc2)nc2cc(C3CCN(C4CC5CCC(C4)N5CC4CC4)CC3)c(F)cc21 (single isomer, unassigned) [Example 249, 5-(1-(8-(cyclopropylmethyl)-8-azabicyclo[3.2.1]octan-3-yl)piperidin-4-yl)-6-fluoro-1-methyl-2-(4-(methylsulfonyl)phenyl)-1H-benzo[d]imidazole]
2100	> 50000		3.3	3.3		Cn1c(-c2ccc(S(C)(=O)=O)cc2)nc2c(F)cc(C3CCN(C4CCCN(CC5CC5)CC4)CC3)cc21 (single isomer, unassigned) [Example 299, 6-(1-(1-(cyclopropylmethyl)azepan-4-yl)piperidin-4-yl)-4-fluoro-1-methyl-2-(4-(methylsulfonyl)phenyl)-1H-benzo[d]imidazole]
> 50000	> 50000		347		350	CC(C)CN1C2CCC1CC(N1CCC(c3ccc4nc(-c5ccc(S(C)(=O)=O)cc5)n(C)c4c3F)CC1)C2 (single isomer, unassigned) [Example 267, 7-fluoro-6-(1-(8-isobutyl-8-azabicyclo[3.2.1]octan-3-yl)piperidin-4-yl)-1-methyl-2-(4-(methylsulfonyl)phenyl)-1H-benzo[d]imidazole]
25700	> 50000		192		190	Cn1c(-c2ccc(S(C)(=O)=O)cc2)nc2cc(F)c(C3CCN(C4CCN(CC5CC5)CC4)CC3)cc21 [Example 224, 6-(1′-(cyclopropylmethyl)-[1,4′-bipiperidin]-4-yl)-5-fluoro-1-methyl-2-(4-(methylsulfonyl)phenyl)-1H-benzo[d]imidazole]
32000	> 50000	130	132			COc1ccc(-c2nc3ccc(C4CCN(C5CCN(CC(C)C)CC5)CC4)cc3n2C)cc1OC [Example 26, 2-(3,4-dimethoxyphenyl)-6-(1′-isobutyl-[1,4′-bipiperidin]-4-yl)-1-methyl-1H-benzo[d]imidazole]
